Source: patent US6558900B2, “Regulation of apoptosis and in vitro model for studies thereof” (Emory University, priority 1996, dated 2003)
“Also recorded” adds a separate entry of the source.

Tests used:
CPP32 = assay: Activation of endogenous CPP32 in HeLa cell S-100 (Western blot; cleavage of 35S-labeled PARP and SREBP-2); type: biochemical, human; conditions: 1 mM nucleotide, 30° C., 1 hr, Western blot
Description: (§1) FIGS. 1A-1D illustrate dATP-dependent activation of CPP32 and DNA fragmentation in vitro. Aliquots (10 μl) of HeLa cell S-100 (50 μg) were incubated alone (lane 1), in the presence of 1 mM ATP (lane 2), or in the presence of 1 mM dATP (lane 3) at 30° C. for 1 hr in a final volume of 20 μl of buffer A. FIG. 1A, samples were subjected to SDS-PAGE and transferred to a nitrocellulose filter, probed with a monoclonal anti-CPP32 antibody, and the antigen/antibody complex was visualized by the ECL method. The filter was exposed to Kodak X-OMAT AR X-ray film for 1 min. In FIG. 1B, an aliquot of 10 μl of in vitro translated, ^35S-labeled PARP was added to each reaction. After 5 min, the samples were subjected to SDS-PAGE and transferred to a nitrocellulose filter. The filter was exposed to film for 2 hr at room temperature. In FIG. 1C, a 5 μl aliquot of in vitro translated, ^35S-labeled SREBP-2 was added to each reaction. After incubation at 30° C. for 30 min, the samples were subjected to SDS-PAGE, the gel was dried and exposed to film for 2 hr at room temperature. In FIG. 1D, a 50 μlaliquot of HeLa cell S-100 (250 μg) was incubated with 6 μl Hamster Liver nuclei in the absence (lane 1), or presence of 1 mM ATP (lane 2) or dATP (lane 3) for 2 hr at 37° C. in a final volume of 60 μl of buffer A. DNA was isolated as described in the Examples and size-separated by agarose gel electrophoresis (2% agarose), and the DNA was visualized by ethidium bromide staining.
Activation of CPP32 and DNA fragmentation are two well characterized biochemical markers of apoptosis and its initiation. With the goal of producing an in vitro system that duplicates apoptosis, we prepared 100,000×g cytosolic supernatant (S-100) from suspension cultures of HeLa cells. The activation of CPP32 is the result of cleavage of its 32 kDa precursor into the 20 kDa NH2-terminal fragment and 11 kDa COOH-terminal fragment [Nicholson et al. (1995) supra], thus the activation of CPP32 in the HeLa cell S-100 was monitored by Western blot analysis using a monoclonal antibody against the 20 kDa fragment of CPP32 (FIG. 1A). The enzymatic activity of CPP32 was assayed by measuring the cleavage of two ^35S-labeled substrates, PARP (FIG. 1B) and SREBP-2 (FIG. 1C). DNA fragmentation was assayed by incubating the HeLa cell S-100 with nuclei isolated from hamster liver followed by genomic DNA extraction and analysis by agarose gel electrophoresis. […] The sizes of the cleaved products of PARP and SREBP-2 were the same as observed in cells undergoing apoptosis [Kaufmann et al. (1993) Cancer Res. 53, 3976-3985; Wang et al. (1996) supra]. […]

hamster liver nuclei = assay: DNA fragmentation assay (HeLa S-100 incubated with hamster liver nuclei); type: biochemical; conditions: 1 mM nucleotide, 37° C., 2 hr
Description: as §1, with “In FIG. 1D, a 50 μlaliquot of HeLa cell S-100 (250 μg) was incubated with 6 μl Hamster Liver nuclei in the absence (lane 1), or presence of 1 mM ATP (lane 2) or dATP (lane 3) for 2 hr at 37° C. in a final volume of 60 μl of buffer A. DNA was isolated as described in the Examples and size-separated by agarose gel electrophoresis (2% agarose), and the DNA was visualized by ethidium bromide staining.” left out
FIGS. 2A-2B illustrate the nucleotide specificity for in vitro activation of CPP32 and DNA fragmentation. […] The DNA was isolated, analyzed by 2% agarose gel electrophoresis and visualized by ethidium bromide staining. […]

HeLa cells = assay: Staurosporine treatment of HeLa cells: cytochrome c in S-cytosol and PARP cleavage; type: cell-based, human; conditions: 1 μM, 6 hr
Description: HeLa cells were treated as described in FIG. 9. On day 2, staurosporine at a final concentration of 1 μM was added to the medium as indicated. After incubation at 37° C. for 6 hr, the cells were harvested and S-cytosols were prepared as described in FIG. 9. In FIG. 10A, a 50 μg aliquot of HeLa cell S-100 as in FIGS. 1-7 (lane 1), or S-cytosol from HeLa cells (lane 2), or S-cytosol from HeLa cells treated with staurosporine for 6 hr. In lane 4, aliquot of 0.2 μg of Apaf-2 purified through Mono S column step. Proteins were separated using 15% SDS-PAGE, transferred to a nitrocellulose filter, and probed with a monoclonal anti-cytochrome c antibody and the antigen/antibody complex was visualized by the ECL method as described herein. Kodak X-OMAT AR X-ray film was exposed for 15 seconds. The arrow denotes the position of cytochrome c; X denotes protein bands cross-reacting with this antibody. In FIG. 10B, aliquots containing 4.5 μg of S-cytosol from HeLa cells (−staurosporine) or HeLa cells treated with 1 μM staurosporine for 6 hr (+staurosporine) were incubated with 10 μl aliquots of in vitro translated, 35S-labeled PARP for 30 min at 30° C. in a volume of 20 μl of buffer A. Samples were then subjected to 12% SDS-PAGE, transferred to a nitrocellulose filter, and film was exposed for 4 hr at room temperature.
HeLa cells were treated with staurosporine. […]

U937 cells = assay: Staurosporine treatment of human monoblastic U937 cells; type: cell-based
variety of cell types = conditions: cited from earlier work

Structure (SMILES) | activation of CPP32 in HeLa cell S-100 (CPP32) | DNA fragmentation in hamster liver nuclei (hamster liver nuclei) | activation of endogenous CPP32 detected by cleavage of PARP (HeLa cells) | cytochrome c in S-cytosol (HeLa cells; vs non-treated cells) | cytochrome c in cytosol / CPP32 activation (U937 cells) | initiation of apoptosis (variety of cell types)
Nc1ncnc2c1ncn2[C@@H]1O[C@H](COP(=O)(O)OP(=O)(O)OP(=O)(O)O)[C@@H](O)[C@H]1O [ATP] | no activation of CPP32 was observed | Such fragmentation did not occur |  |  |  | 
CN[C@@H]1C[C@H]2O[C@@](C)([C@@H]1OC)n1c3ccccc3c3c4c(c5c6ccccc6n2c5c31)C(=O)NC4 [staurosporine] |  |  | resulted in activation of the endogenous CPP32 | increased release of cytochrome c to the cytosol; also recorded: markedly elevated cytochrome c; also recorded: increased cytosolic cytochrome c | The same phenomenon was also observed | potent apoptosis inducer
